Counter-ions that a name gives are not always drawn.
Experiments:
HaCaT keratinocyte cells [1] = assay: Keratinocyte differentiation (acridine orange staining); assay type: cell-based; settings: 24 hrs, average of minimum three replicates
Method: Several dicarboxylic acids were tested in an in-vitro assay viz. keratinocyte differentiation which is a well known pathway leading to skin lightening. The assay protocol is given below: 5×10^4 HaCaT keratinocyte cells/well were grown in 24 well plates for 24 hours. Cells were cultured with actives for 24 hrs. Cells were then washed with Phosphated buffer solution (PBS) and stained with 5 μg/ml acridine orange. Cells were immediately viewed using an epi-fluorescent microscope (Olympus BX 50), at 20× magnification, using appropriate excitation and barrier filters, to simultaneously view red and green fluorescence (excitation: 460 nm and emission>515 nm). The entire plate was scanned and the percentage of differentiated keratinocytes (cells with red fluorescence evenly distributed within the cytoplasm) was estimated. Data is represented as % control.

HaCaT keratinocyte cells [2] = assay: Highest concentration above which the active exhibited cytotoxicity; assay type: cell-based; settings: keratinocyte differentiation experiment of table 2
B16 melanocytes = settings: 1 mM active, 24 hrs, average of minimum three replicates
Method: B16 melanocytes were cultured in 60 mm^2 petriplates for 2-3 days or until they reached ˜70% confluency and then actives were added and incubated for 24 hrs. Cells were harvested and protein content was estimated using Bradford method. The cells were then solubilized in 0.1N NaOH and melanin was estimated. Data are then calculated as mg melanin/mg protein and represented as % control. Decreased numbers indicate inhibition of melanin synthesis by the actives.

Question: `O=C(O)CCCCCCCC(=O)O` [azeleic acid] was tested. Which “% Keratinocyte differentiation, average” value (HaCaT keratinocyte cells [1]; 5.5 mM active) did it give?
Answer: The value was 175 % control.

Question: What about the “Conc. of active = highest possible concentration above which the active exhibited cytotoxicity” value (HaCaT keratinocyte cells [2]) of the same molecule?
Answer: Its value is 5500 µM.

Question: With `O=C(O)/C=C/C(=O)O` [disodium fumarate] as the molecule, how does the “% Keratinocyte differentiation, average” value (HaCaT keratinocyte cells [1]; 10 mM active) read?
Answer: The value was 183 % control.

Question: What about the “Conc. of active = highest possible concentration above which the active exhibited cytotoxicity” value (HaCaT keratinocyte cells [2]) of the same molecule?
Answer: Its value is 10000 µM.

Question: With `O=C([O-])C(O)C(O)C(=O)[O-].[Na+].[Na+]` (stereo not shown) [sodium tartarate] as the molecule, how does the “% Keratinocyte differentiation, average” value (HaCaT keratinocyte cells [1]; 10 mM active) read?
Answer: Its value is 165 % control.

Question: And the “Conc. of active = highest possible concentration above which the active exhibited cytotoxicity” value (HaCaT keratinocyte cells [2])?
Answer: Its value is 10000 µM.

Question: How did the “% Keratinocyte differentiation, average” value (HaCaT keratinocyte cells [1]; 1 mM active) turn out when `CCCC(=O)[O-].[Na+]` [sodium butyrate] was run?
Answer: The value was 174 % control.

Question: And the “Melanin (mg melanin/mg protein), average” value (B16 melanocytes)?
Answer: The value was 92 % control.

Question: What about the “Conc. of active = highest possible concentration above which the active exhibited cytotoxicity” value (HaCaT keratinocyte cells [2]) of the same molecule?
Answer: The value was 1000 µM.

Question: For `O=C(O)CCCCCCCCC(=O)O` [sebacic acid], which “% Keratinocyte differentiation, average” value (HaCaT keratinocyte cells [1]; 5 mM active) is on record?
Answer: The value was 130 % control.

Question: What about the “Conc. of active = highest possible concentration above which the active exhibited cytotoxicity” value (HaCaT keratinocyte cells [2]) of the same molecule?
Answer: The value was 5000 µM.

Question: How did the “% Keratinocyte differentiation, average” value (HaCaT keratinocyte cells [1]; 6 mM active) turn out when `O=C([O-])CCC(=O)[O-].[Na+].[Na+]` [sodium succinate] was run?
Answer: The value was 155 % control.

Question: What about the “Conc. of active = highest possible concentration above which the active exhibited cytotoxicity” value (HaCaT keratinocyte cells [2]) of the same molecule?
Answer: Its value is 6000 µM.

From patent publication US20130266528A1, “SKIN LIGHTENING COMPOSITION” (priority 2010, published 2013)
